#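 Cultured in 96-well plates, cells were exposed to test compound for 48 hours across five concentrations. At the GI50, growth is halved. The concentration for full growth arrest is given as TGI.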
# What was measured:
# Test in all cases: NCI tumour cell line growth inhibition, 48 h
# OVCAR-4 ovarian = tested on: OVCAR-4 ovarian
# RPMI-8226 leukemia = tested on: RPMI-8226 leukemia
# U251 CNS = tested on: U251 CNS
# MALME-3M melanoma = tested on: MALME-3M melanoma
# NCI-H226 lung = tested on: NCI-H226 lung
# CAKI-1 renal = tested on: CAKI-1 renal
# SF-295 CNS = tested on: SF-295 CNS
# NCI-H522 lung = tested on: NCI-H522 lung
# MOLT-4 leukemia = tested on: MOLT-4 leukemia
# OVCAR-3 ovarian = tested on: OVCAR-3 ovarian
# DU-145 prostate = tested on: DU-145 prostate
# MDA-MB-468 breast = tested on: MDA-MB-468 breast
# UACC-62 melanoma = tested on: UACC-62 melanoma
# SK-OV-3 ovarian = tested on: SK-OV-3 ovarian
# KM12 colon = tested on: KM12 colon
# SNB-75 CNS = tested on: SNB-75 CNS
# HS 578T breast = tested on: HS 578T breast
# OVCAR-8 ovarian = tested on: OVCAR-8 ovarian
# HOP-92 NSCLC = tested on: HOP-92 NSCLC
# HCT-15 colon = tested on: HCT-15 colon
# HT29 colon = tested on: HT29 colon
# SW-620 colon = tested on: SW-620 colon
# SF-268 CNS = tested on: SF-268 CNS
# SK-MEL-28 melanoma = tested on: SK-MEL-28 melanoma
# BT-549 breast = tested on: BT-549 breast
# SN12C renal = tested on: SN12C renal
# OVCAR-5 ovarian = tested on: OVCAR-5 ovarian
# EKVX NSCLC = tested on: EKVX NSCLC
# 786-0 renal = tested on: 786-0 renal
# COLO 205 colon = tested on: COLO 205 colon
# SK-MEL-5 melanoma = tested on: SK-MEL-5 melanoma
# HCT-116 colon = tested on: HCT-116 colon
# SR leukemia = tested on: SR leukemia
# K-562 leukemia = tested on: K-562 leukemia
# ACHN renal = tested on: ACHN renal
# HL-60(TB) leukemia = tested on: HL-60(TB) leukemia
# SNB-19 CNS = tested on: SNB-19 CNS
# M14 melanoma = tested on: M14 melanoma
# NCI-H23 lung = tested on: NCI-H23 lung
# PC-3 prostate = tested on: PC-3 prostate
# A498 renal = tested on: A498 renal
# TK-10 renal = tested on: TK-10 renal
# HCC-2998 colon = tested on: HCC-2998 colon
# IGROV1 ovarian = tested on: IGROV1 ovarian
# RXF 393 renal = tested on: RXF 393 renal
# MDA-MB-435 = tested on: MDA-MB-435
# T-47D breast = tested on: T-47D breast
# CCRF-CEM leukemia = tested on: CCRF-CEM leukemia
# MCF7 breast = tested on: MCF7 breast
# HOP-62 NSCLC = tested on: HOP-62 NSCLC
# SF-539 CNS = tested on: SF-539 CNS
# LOX IMVI melanoma = tested on: LOX IMVI melanoma
# NCI-H460 lung = tested on: NCI-H460 lung
# SK-MEL-2 melanoma = tested on: SK-MEL-2 melanoma
# UACC-257 melanoma = tested on: UACC-257 melanoma
# A549 NSCLC = tested on: A549 NSCLC
# UO-31 renal = tested on: UO-31 renal
# MDA-MB-231 breast = tested on: MDA-MB-231 breast
smiles,measurement,setting,value
COc1ccccc1[C@H]1C(C(=O)c2ccc(Cl)cc2)C2(N[C@@H]1c1ccccc1)C(=O)Nc1ccc(Cl)cc12 (stereo not given in full),GI50,OVCAR-4 ovarian,10.4 µM
same,TGI,OVCAR-4 ovarian,> 57.5 µM
same,GI50,RPMI-8226 leukemia,5.91 µM
same,TGI,RPMI-8226 leukemia,50.7 µM
same,GI50,U251 CNS,2.86 µM
same,TGI,U251 CNS,> 57.5 µM
same,GI50,MALME-3M melanoma,7.44 µM
same,TGI,MALME-3M melanoma,21.1 µM
same,GI50,NCI-H226 lung,8.32 µM
same,TGI,NCI-H226 lung,> 57.5 µM
same,GI50,CAKI-1 renal,1.68 µM
same,TGI,CAKI-1 renal,> 57.5 µM
same,GI50,SF-295 CNS,3.43 µM
same,TGI,SF-295 CNS,> 57.5 µM
same,GI50,NCI-H522 lung,1.3 µM
same,TGI,NCI-H522 lung,5.51 µM
same,GI50,MOLT-4 leukemia,1.92 µM
same,TGI,MOLT-4 leukemia,> 57.5 µM
same,GI50,OVCAR-3 ovarian,2.76 µM
same,TGI,OVCAR-3 ovarian,> 57.5 µM
same,GI50,DU-145 prostate,2.56 µM
same,TGI,DU-145 prostate,> 57.5 µM
same,GI50,MDA-MB-468 breast,1.38 µM
same,TGI,MDA-MB-468 breast,16.2 µM
same,GI50,UACC-62 melanoma,1.72 µM
same,TGI,UACC-62 melanoma,8.69 µM
same,GI50,SK-OV-3 ovarian,5.17 µM
same,TGI,SK-OV-3 ovarian,> 57.5 µM
same,GI50,KM12 colon,8.36 µM
same,TGI,KM12 colon,> 57.5 µM
same,GI50,SNB-75 CNS,2.27 µM
same,TGI,SNB-75 CNS,> 57.5 µM
same,GI50,HS 578T breast,2.56 µM
same,TGI,HS 578T breast,34.2 µM
same,GI50,OVCAR-8 ovarian,7.52 µM
same,TGI,OVCAR-8 ovarian,> 57.5 µM
same,GI50,HOP-92 NSCLC,4.52 µM
same,TGI,HOP-92 NSCLC,37.1 µM
same,GI50,HCT-15 colon,6.98 µM
same,TGI,HCT-15 colon,> 57.5 µM
same,GI50,HT29 colon,1.73 µM
same,TGI,HT29 colon,7.91 µM
same,GI50,SW-620 colon,4.28 µM
same,TGI,SW-620 colon,> 57.5 µM
same,GI50,SF-268 CNS,9.79 µM
same,TGI,SF-268 CNS,> 57.5 µM
same,GI50,SK-MEL-28 melanoma,16.7 µM
same,TGI,SK-MEL-28 melanoma,> 57.5 µM
same,GI50,BT-549 breast,1.35 µM
same,TGI,BT-549 breast,18.6 µM
same,GI50,SN12C renal,2.83 µM
same,TGI,SN12C renal,13.5 µM
same,GI50,OVCAR-5 ovarian,8.44 µM
same,TGI,OVCAR-5 ovarian,> 57.5 µM
same,GI50,EKVX NSCLC,8.12 µM
same,TGI,EKVX NSCLC,> 57.5 µM
same,GI50,786-0 renal,8.96 µM
same,TGI,786-0 renal,35.5 µM
same,GI50,COLO 205 colon,9.92 µM
same,TGI,COLO 205 colon,21.1 µM
same,GI50,SK-MEL-5 melanoma,2.69 µM
same,TGI,SK-MEL-5 melanoma,10.6 µM
same,GI50,HCT-116 colon,2.13 µM
same,TGI,HCT-116 colon,> 57.5 µM
same,GI50,SR leukemia,1.86 µM
same,TGI,SR leukemia,26.6 µM
same,GI50,K-562 leukemia,1.78 µM
same,TGI,K-562 leukemia,> 57.5 µM
same,GI50,ACHN renal,6.62 µM
same,TGI,ACHN renal,53.7 µM
same,GI50,HL-60(TB) leukemia,1.77 µM
same,TGI,HL-60(TB) leukemia,25.2 µM
same,GI50,SNB-19 CNS,14 µM
same,TGI,SNB-19 CNS,> 57.5 µM
same,GI50,M14 melanoma,3.55 µM
same,TGI,M14 melanoma,> 57.5 µM
same,GI50,NCI-H23 lung,8.68 µM
same,TGI,NCI-H23 lung,> 57.5 µM
same,GI50,PC-3 prostate,1.46 µM
same,TGI,PC-3 prostate,> 57.5 µM
same,GI50,A498 renal,15.3 µM
same,TGI,A498 renal,52.1 µM
same,GI50,TK-10 renal,15.8 µM
same,TGI,TK-10 renal,> 57.5 µM
same,GI50,HCC-2998 colon,9.77 µM
same,TGI,HCC-2998 colon,43.8 µM
same,GI50,IGROV1 ovarian,9.15 µM
same,TGI,IGROV1 ovarian,> 57.5 µM
same,GI50,RXF 393 renal,1.66 µM
same,TGI,RXF 393 renal,13.8 µM
same,GI50,MDA-MB-435,1.82 µM
same,TGI,MDA-MB-435,8.94 µM
same,GI50,T-47D breast,4.61 µM
same,TGI,T-47D breast,> 57.5 µM
same,GI50,CCRF-CEM leukemia,2.14 µM
same,TGI,CCRF-CEM leukemia,> 57.5 µM
same,GI50,MCF7 breast,2 µM
same,TGI,MCF7 breast,> 57.5 µM
same,GI50,HOP-62 NSCLC,9.31 µM
same,TGI,HOP-62 NSCLC,> 57.5 µM
same,GI50,SF-539 CNS,8.51 µM
same,TGI,SF-539 CNS,30.3 µM
same,GI50,LOX IMVI melanoma,1.72 µM
same,TGI,LOX IMVI melanoma,21.2 µM
same,GI50,NCI-H460 lung,2.32 µM
same,GI50,SK-MEL-2 melanoma,4.08 µM
same,TGI,SK-MEL-2 melanoma,13.6 µM
same,GI50,UACC-257 melanoma,4.86 µM
same,TGI,UACC-257 melanoma,> 57.5 µM
same,GI50,A549 NSCLC,2.76 µM
same,TGI,A549 NSCLC,> 57.5 µM
same,GI50,UO-31 renal,2.26 µM
same,TGI,UO-31 renal,> 57.5 µM
same,GI50,MDA-MB-231 breast,1.36 µM
same,TGI,MDA-MB-231 breast,12.5 µM
